Measurements as given in patent EP3720857B1, “2-OXO-5H-CHROMENO[4,3-B]PYRIDINES FOR USE IN THE TREATMENT OF HEPATITIS B” (Galapagos NV, priority 2017, dated 2019).

Tests used:
[1] = system: hepatitis virus B (HBV) infection; assay: iCell hepatocytes assay, standard assay (HBc staining, HBe ELISA, HBs ELISA); type: cell-based; conditions: for EC50: Hepatitis B virus, Hepatocyte
Description: (§1) The principle of the iCell hepatocyte 2.0 96 well assay is to evaluate the inhibitory effect of a test compound on hepatitis virus B (HBV) infection. In this assays the HBV core antigen (HBcAg) and/or extracellular antigen (HBeAg) and/or surface antigen (HBsAg) are used as a marker for HBV infection. Nuclei count may be used as an indication for compound toxicity.
(§2) In the standard assay set-up HBV infection and compound addition are performed on the same day, in the delayed assay the compounds are added three days after HBV infection. iCell hepatocytes 2.0 are human hepatocytes derived from induced pluripotent stem cells (iPSc) purchased from Cellular Dynamics international (CDI, R1027).
(§3) At day 0, iCell hepatocytes 2.0 (CDI, R1027) are thawed and seeded in collagen I coated 96well plates at 112 000c/well (100µL) in plating medium (RPMI supplemented with B27 supplement, 20 ng/mL recombinant human oncostatin M (OSM), 25µg/mL gentamicin, 0.1µM Dexamethasone and iCell medium supplement provided by CDI). Plates are incubated at 37°C, 5% CO2 and daily refreshed with plating medium for the following four days.
(§4) On day 5 and 6, plates are refreshed with 100µL maintenance medium (RPMI supplemented with B27 supplement, 25µg/mL gentamicin, 0.1µM Dexamethasone, and iCell medium supplement provided by CDI) and incubated at 37°C, 5% CO2 until the following day.
On day 7 (day of infection) the supernatant is removed from the assay plates and 25 µL of 1/250 diluted compound in maintenance medium and 25 µL of HBV mix (HBV virus, 8% PEG, 0% or 4% DMSO in maintenance medium) are added to the assay plates. Compounds series are either prepared manually as a 6 point serial dilution using 1/5 dilution steps in 100% DMSO or as an 8 point serial dilution using 1/3 dilution steps in 100% DMSO or as an 8 point serial dilution using ¼ dilution steps, normalized for 0.2% DMSO. The assay plates were incubated overnight at 37°C, 5% CO2.
On day 1 post infection (day 8) 50 µL of HBV/cpd mix is removed from the assay plates and refreshed with 100 µL of compound series diluted 1/500 in maintenance medium. The assay plates are incubated at 37°C, 5% CO2 and refreshed with compound series diluted 1/500 in maintenance medium every other day (at day 3 and day 5 post infection) or after three days of incubation (at day 4 post infection).
(§5) At day 7 post infection (day 14), 100µL of supernatant is harvested and frozen at -20°C. The cells were fixed with 50 µL of 3.7% formaldehyde and incubated for 30 min at room temperature. After fixation, cells are washed four times with phosphate buffer saline (PBS) with the plate washer (Select 405, microplate washer, Biotek) and subjected to HBc staining. The harvested supernatant is used for HBe and/or HBs ELISA.
(§6) The assay plates are blocked with blocking buffer (2% FBS, 3% BSA, 0.2% TritonX100 in PBS) for 1 h at room temperature.
(§7) After blocking, the assay plates are tapped manually and incubated with 50 µL diluted primary antibody (1/700 Rabbit-anti-HBc Ag, Dako, B0586 or 1/350 Rabbit-anti-HBc Ag, Invitrogen, PA516368) in blocking buffer and incubated for 90 min at room temperature.
(§8) After 4 washes of PBST (1XPBS + 0.05% Tween) with the plate washer, the assay plates are incubated with 100 µL of secondary antibody (Donkey-anti-rabbit Alexa 488, Lifetechnologies, A21206) 1/500 diluted in blocking buffer and incubated for 60 min at room temperature in the dark, then washed 4 times with PBST on the plate washer and incubated with 100µL of DAPI (Sigma D9542, stock 5mg/mL) 1/10000 diluted in PBS for 15-30 min at room temperature in the dark.
Finally, the assay plates are read out on a InCell Analyzer 2200 (GE Healthcare).
A white lumitrac 600 384 well plate iss coated with 40µL of capture antibody (monoclonal Mouse-anti-HBe Ag, Fitzgerald, 10-H10) diluted 1/2000 in coating buffer (0.1M sodium carbonate pH 9.5) and incubated overnight at 4°C. […]

[2] = system: hepatitis virus B (HBV) infection; assay: iCell hepatocytes assay, delayed assay (compounds added three days after HBV infection); type: cell-based; conditions: for EC50: Hepatitis B virus, Hepatocyte, HBs ELISA
Description: as §1, §2, §3, §4
On day 7 (day of infection), the maintenance medium is removed from the assay plates and cells are infected with 50 µL of HBV mix (HBV virus, 4% PEG, 0% or 2% DMSO in maintenance medium). The assay plates were incubated overnight at 37°C, 5% CO2.
At day 1 post infection (day8), 50µL of HBV mix is removed from the assay plates and refreshed with 100 µL of maintenance medium. The assay plates are incubated at 37°C, 5% CO2 for three days.
At day 4 post infection (day 11) and day 7 post infection (day14), the supernatant is removed and 100 µL of compound series diluted 1/500 in maintenance medium is added to the assay plates (8 point serial dilution using 1/3 dilution steps in 100% DMSO or 8 point serial dilution using ¼ dilution steps, normalized for 0.2% DMSO. The assay plates were incubated at 37°C, 5% CO2 for three days.
as §5, with “day 10” for “day 7”, “(day 17),” for “(day 14),”, “frozen to” for “frozen at”, “cells are” for “cells were”, “staining.” for “staining. The”
as §6, §7, §8
Finally, the assay plates are read out on a InCell Analyzer 2200 (GE Healthcare). […]
After blocking, 30 µL of sample and HBe Ag standard (recombinant hepatitis B virus E antigen protein, 4mg/mL, Abcam, ab91273) are added to the plate. The HBe Ag standard is 1/3 diluted in blocking buffer starting from 1.25µg/mL. A vehicle control is also included. The plate is incubated for 30 min at room temperature.
After sample incubation, the plates are washed 4 times with PBST on a platewasher followed by 2 washed of PBS. […]

Row | Structure (SMILES) | Standard assay HBs ELISA % inhibition [1] | EC50 [1] [nM] | Delayed assay HBs ELISA % inhibition [2] | EC50 [2] [nM]
1 | COCCCOc1cc2c(cc1F)-c1c(cc(C(=O)O)c(=O)n1C1CC1)C(C(C)C)O2 (stereo not drawn) [Compound 1, 1-cyclopropyl-9-fluoro-5-isopropyl-8-(3-methoxypropoxy)-2-oxo-5H-chromeno[4,3-b]pyridine-3-carboxylic acid] | ++ (50-75%) | 0.001 to 20 | ++ (50-75%) | 0.001 to 20
2 | COCCCOc1cc2c(cc1Cl)-c1c(cc(C(=O)O)c(=O)n1C1CC1)CO2 [Compound 6, 9-chloro-1-cyclopropyl-8-(3-methoxypropoxy) -2-oxo-5H-chromeno[4,3-b]pyridine-3-carboxylic acid] | +++ (75-100%) | 0.001 to 20 | ++ (50-75%) | 22 to 50
3 | CCC1Oc2cc(OCCCOC)c(F)cc2-c2c1cc(C(=O)O)c(=O)n2C1CC1 (stereo not drawn) [Compound 16, 1-cyclopropyl-5-ethyl-9-fluoro-8-(3-methoxypropoxy) -2-oxo-5H-chromeno[4,3-b]pyridine-3-carboxylic acid] | ++ (50-75%) | 22 to 50 | ++ (50-75%) | 22 to 50
4 | COCCCOc1cc2c(cc1Cl)-c1c(cc(C(=O)O)c(=O)n1C1CC1)C(C(C)(C)COC)O2 (stereo not drawn) [Compound 19, 9-chloro-1-cyclopropyl-5-(2-methoxy-1,1-dimethyl-ethyl)-8-(3-methoxypropoxy) -2-oxo-5H-chromeno[4,3-b]pyridine-3-carboxylic acid] | ++ (50-75%) | 22 to 50 | ++ (50-75%) | 22 to 50
5 | COCCCOc1cc2c(cc1F)-c1c(cc(C(=O)O)c(=O)n1C1CC1)[C@H](C(C)C)O2 [Compound 44, (5S)-1-cyclopropyl-9-fluoro-5-isopropyl-8-(3-methoxypropoxy)-2-oxo-5H-chromeno[4,3-b]pyridine-3-carboxylic acid] | ++ (50-75%) | 22 to 50 | ++ (50-75%) | > 50
6 | COCCCOc1cc2c(cc1Cl)-c1c(cc(C(=O)O)c(=O)n1C1CC1)[C@H](C1(C)COC1)O2 [Compound 46, (5R)-9-chloro-1-cyclopropyl-8-(3-methoxypropoxy)-5-(3-methyloxetan-3-yl)-2-oxo-5H-chromeno[4,3-b]pyridine-3-carboxylic acid] | +++ (75-100%) | 0.001 to 20 | ++ (50-75%) | 0.001 to 20
